Source: article PMC11274128, “Modification and Synergistic Studies of a Novel Frog Antimicrobial Peptide against Pseudomonas aeruginosa Biofilms” (Antibiotics, 2024)
≈ marks a conversion by molar mass, not a printed value.

Assays:
A. baumannii (BAA 747) = experiment: microbe, parasite or virus in culture; type: cell-based, Acinetobacter baumannii; details: Acinetobacter baumannii, BAA747, planktonic A. baumannii BAA 747; for MIC: 37 °C, nine repeats of three independent experiments, read-out: MIC; for MBC: lowest concentration killing 99.9% of inoculum, read-out: MBC
Description: (§1) The minimum inhibitory concentration (MIC) is the minimum concentration of an antimicrobial agent that prevents the visible growth of a bacterium or bacteria. The MIC is an important piece of data for research on new antimicrobial agents and helps in the effective selection of antibiotics to improve the success of treatment. The minimum bactericidal concentration (MBC) is defined as the lowest antibiotic concentration that kills 99.9% of the inoculum. This study mainly contained eight different microorganisms, which were Staphylococcus aureus (ATCC 6538), methicillin-resistant Staphylococcus aureus (NCTC 12493), Enterococcus faecalis (NCTC 12697), Escherichia coli (ATCC 8739), Klebsiella pneumoniae (ATCC 43816), Pseudomonas aeruginosa (ATCC CRM 9027), Acinetobacter baumannii (BAA 747), and Candida albicans (ATCC 10231). The bacteria were incubated in the compatible medium at 37 °C overnight.

MRSA NCTC 12493 biofilm = type: cell-based, methicillin-resistant Staphylococcus aureus; details: for MBIC: lowest concentration inhibiting at least 90% of biofilm formation; for MBEC: minimum concentration eradicating at least 99% of the biofilm
Description: (§2) The minimum bactericidal concentration (MBC) is defined as the lowest antibiotic concentration that kills 99.9% of the inoculum. The minimum biofilm inhibitory concentration (MBIC) is the lowest concentration that inhibits at least 90% of the formation of biofilm. The minimum biofilm eradication concentration (MBEC) is the minimum concentration that can eradicate at least 99% of the biofilm. In addition to the eight microorganisms described previously, this experiment was also applied to P. aeruginosa (ATCC 27853, ATCC BAA-2108, P. aeruginosa 01, P. aeruginosa 14).

[1] = tested on: K. pneumoniae (ATCC 43816); experiment: microbe, parasite or virus in culture; type: cell-based, Klebsiella pneumoniae; details: Klebsiella pneumoniae, ATCC43816, planktonic K. pneumoniae ATCC 43816; for MIC: 37 °C, nine repeats of three independent experiments, read-out: MIC; for MBC: lowest concentration killing 99.9% of inoculum, read-out: MBC
Description: as §1

P. aeruginosa 14 biofilm = type: cell-based, Pseudomonas aeruginosa; details: for MBIC: lowest concentration inhibiting at least 90% of biofilm formation; for MBEC: minimum concentration eradicating at least 99% of the biofilm
Description: as §2

P. aeruginosa 01 biofilm = type: cell-based, Pseudomonas aeruginosa; details: for MBIC: lowest concentration inhibiting at least 90% of biofilm formation; for MBEC: minimum concentration eradicating at least 99% of the biofilm
Description: as §2

[2] = tested on: P. aeruginosa ATCC BAA-2108 biofilm; type: cell-based, Pseudomonas aeruginosa; details: for MBIC: lowest concentration inhibiting at least 90% of biofilm formation; for MBEC: minimum concentration eradicating at least 99% of the biofilm
Description: as §2

[3] = tested on: P. aeruginosa ATCC 27853 biofilm; type: cell-based, Pseudomonas aeruginosa; details: for MBIC: lowest concentration inhibiting at least 90% of biofilm formation; for MBEC: minimum concentration eradicating at least 99% of the biofilm
Description: as §2

[4] = tested on: P. aeruginosa ATCC CRM 9027 biofilm; type: cell-based, Pseudomonas aeruginosa; details: for MBIC: lowest concentration inhibiting at least 90% of biofilm formation; for MBEC: minimum concentration eradicating at least 99% of the biofilm
Description: as §2

[5] = tested on: S. aureus ATCC 6538 biofilm; type: cell-based, Staphylococcus aureus; details: for MBIC: lowest concentration inhibiting at least 90% of biofilm formation; for MBEC: minimum concentration eradicating at least 99% of the biofilm
Description: as §2

MRSA (NCTC 12493) = experiment: microbe, parasite or virus in culture; type: cell-based, methicillin-resistant Staphylococcus aureus; details: Staphylococcus aureus, planktonic MRSA NCTC 12493; for MIC: 37 °C, nine repeats of three independent experiments, read-out: MIC; for MBC: lowest concentration killing 99.9% of inoculum, read-out: MBC
Description: as §1

[6] = tested on: A. baumannii BAA 747 biofilm; type: cell-based, Acinetobacter baumannii; details: for MBIC: lowest concentration inhibiting at least 90% of biofilm formation; for MBEC: minimum concentration eradicating at least 99% of the biofilm
Description: as §2

E. faecalis (NCTC 12697) = experiment: microbe, parasite or virus in culture; type: cell-based, Enterococcus faecalis; details: Enterococcus faecalis, NCTC12697, planktonic E. faecalis NCTC 12697; for MIC: 37 °C, nine repeats of three independent experiments, read-out: MIC; for MBC: lowest concentration killing 99.9% of inoculum, read-out: MBC
Description: as §1

E. coli (ATCC 8739) = experiment: microbe, parasite or virus in culture; type: cell-based, Escherichia coli; details: Escherichia coli, ATCC8739, planktonic E. coli ATCC 8739; for MIC: 37 °C, nine repeats of three independent experiments, read-out: MIC; for MBC: lowest concentration killing 99.9% of inoculum, read-out: MBC
Description: as §1

[7] = tested on: K. pneumoniae ATCC 43816 biofilm; type: cell-based, Klebsiella pneumoniae; details: for MBIC: lowest concentration inhibiting at least 90% of biofilm formation; for MBEC: minimum concentration eradicating at least 99% of the biofilm
Description: as §2

S. aureus (ATCC 6538) = experiment: microbe, parasite or virus in culture; type: cell-based, Staphylococcus aureus; details: Staphylococcus aureus, ATCC6538, planktonic S. aureus ATCC 6538; for MIC: 37 °C, nine repeats of three independent experiments, read-out: MIC; for MBC: lowest concentration killing 99.9% of inoculum, read-out: MBC
Description: as §1

[8] = tested on: E. faecalis NCTC 12697 biofilm; type: cell-based, Enterococcus faecalis; details: for MBIC: lowest concentration inhibiting at least 90% of biofilm formation; for MBEC: minimum concentration eradicating at least 99% of the biofilm
Description: as §2

[9] = tested on: P. aeruginosa (ATCC CRM 9027); experiment: microbe, parasite or virus in culture; type: cell-based, Pseudomonas aeruginosa; details: Pseudomonas aeruginosa, planktonic P. aeruginosa ATCC CRM 9027; for MIC: 37 °C, nine repeats of three independent experiments, read-out: MIC; for MBC: lowest concentration killing 99.9% of inoculum, read-out: MBC
Description: as §1

SMILES	MIC (A. baumannii (BAA 747)) [µM]	MBC (A. baumannii (BAA 747)) [µM]	MBIC (MRSA NCTC 12493 biofilm)	MBEC (MRSA NCTC 12493 biofilm)	MIC [1] [µM]	MBC [1] [µM]	MBIC (P. aeruginosa 14 biofilm) [µM]	MBEC (P. aeruginosa 14 biofilm) [µM]	MBIC (P. aeruginosa 01 biofilm) [µM]	MBEC (P. aeruginosa 01 biofilm) [µM]	MIC (MRSA (NCTC 12493)) [µM]	MBC (MRSA (NCTC 12493)) [µM]	MIC (E. faecalis (NCTC 12697)) [µM]	MBC (E. faecalis (NCTC 12697)) [µM]	MIC (E. coli (ATCC 8739)) [µM]	MBC (E. coli (ATCC 8739)) [µM]	MIC (S. aureus (ATCC 6538)) [µM]	MBC (S. aureus (ATCC 6538)) [µM]	MIC [9] [µM]	MBC [9] [µM]	other results
CO/N=C(\C(=O)N[C@@H]1C(=O)N2C(C(=O)[O-])=C(C[N+]3(C)CCCC3)CS[C@H]12)c1csc(N)n1 [Cefepime, reference compound]	1 (≈ 0.481 µg/mL)	2 (≈ 0.961 µg/mL)	>128/>128 µM	>128/>128 µM	128 (≈ 61.5 µg/mL)	> 128	8	> 128	4	> 128	16 (≈ 7.69 µg/mL)	32 (≈ 15.4 µg/mL)	128 (≈ 61.5 µg/mL)	> 128	8 (≈ 3.84 µg/mL)	16 (≈ 7.69 µg/mL)	32 (≈ 15.4 µg/mL)	64 (≈ 30.8 µg/mL)	2 (≈ 0.961 µg/mL)	2 (≈ 0.961 µg/mL)	MBIC [2]: 64 µM; MBEC [2]: > 128 µM; MBIC [3]: 2 µM; MBEC [3]: 4 µM; MBIC [4]: >128/>128 µM; MBEC [4]: >128/>128 µM; MBIC [5]: 4 µM; MBEC [5]: 8 µM; MBIC [6]: 128/>128 µM; MBEC [6]: 128/>128 µM; MBIC [7]: >128/>128 µM; MBEC [7]: >128/>128 µM; MBIC [8]: >128/>128 µM; MBEC [8]: >128/>128 µM
C[C@H]1COc2c(N3CCN(C)CC3)c(F)cc3c(=O)c(C(=O)O)cn1c23 [Levofloxacin, reference compound]	1 (≈ 0.361 µg/mL)	1 (≈ 0.361 µg/mL)			> 128	> 128					0.25 (≈ 0.0903 µg/mL)	0.5 (≈ 0.181 µg/mL)	2 (≈ 0.723 µg/mL)	8 (≈ 2.89 µg/mL)	0.25 (≈ 0.0903 µg/mL)	0.5 (≈ 0.181 µg/mL)	0.5 (≈ 0.181 µg/mL)	0.5 (≈ 0.181 µg/mL)	2 (≈ 0.723 µg/mL)	2 (≈ 0.723 µg/mL)	
CNC(C)C1CCC(N)C(OC2C(N)CC(N)C(OC3OCC(C)(O)C(NC)C3O)C2O)O1 (stereo not shown) [Gentamicin, reference compound]	> 128	> 128	2 µM	> 128 µM	1 (≈ 0.478 µg/mL)	1 (≈ 0.478 µg/mL)	2	4	4	8	1 (≈ 0.478 µg/mL)	2 (≈ 0.955 µg/mL)	16 (≈ 7.64 µg/mL)	32 (≈ 15.3 µg/mL)	2 (≈ 0.955 µg/mL)	4 (≈ 1.91 µg/mL)	2 (≈ 0.955 µg/mL)	2 (≈ 0.955 µg/mL)	0.25 (≈ 0.119 µg/mL)	0.5 (≈ 0.239 µg/mL)	MBIC [2]: 16 µM; MBEC [2]: 128 µM; MBIC [3]: 4 µM; MBEC [3]: > 128 µM; MBIC [4]: 2 µM; MBEC [4]: 4 µM; MBIC [5]: 8 µM; MBEC [5]: 16 µM; MBIC [6]: 8 µM; MBEC [6]: 16 µM; MBIC [7]: 32/32 µM; MBEC [7]: 32/32 µM; MBIC [8]: >128/>128 µM; MBEC [8]: >128/>128 µM
